Test results published in patent publication US8653100B2 (AbbVie Inc., priority 2008, dated 2014).
Structures can show the parent of a compound that is named as a salt. Where two headings read alike, the source gives them in different places.

Target: human GlyT1c transporter (Homo sapiens (Human), UniProt P48067)
Experiment: Radioligand binding assay using recombinant CHO cell membranes expressing human GlyT1
Conditions: examples 88-204, radioligand not specified by footnote, read-out: radioligand binding Kiapp
Description: 2. Radioligand binding assays using recombinant CHO cell membranes expressing human GlyT1:
Radioligand binding to human GlyT1c transporter-expressing membranes was carried out as described in Mezler et al., Molecular Pharmacology 74:1705-1715, 2008.
More specifically, [^3H]-(R)-NPTS radioligand binding to human GlyT1c transporter-expressing membranes was measured in duplicate in a total volume of 200 μl in 96-well plates. To 100 μl of membrane suspension (yielding a final membrane protein concentration of 50 μg/ml) in assay buffer (120 mM NaCl, 2 mM KCl, 10 mM Hepes, 1 mM MgCl2, 1 mM CaCl2, pH 7.5) […] of [^3H]-(R)-NPTS (0.5 nM final) were added in assay buffer. For competition experiments 10 μl of buffer or unlabeled compound solution obtained from dilution series of test compounds in DMSO followed. An intermediate 1:10 dilution in assay buffer yielded a final DMSO concentration of 1%. Non-specific binding was determined in the presence of 10 μM Org24598 (or its racemate Org24461) for [^3H]-(R)-NPTS. After incubation at room temperature for 1 h, the incubation mixture was harvested (Tomtec Mach III U Harvester) through 96-well GF/B filter plates (PerkinElmer), presoaked for 1 h with 40 μl per well of 0.1% polyethylene-imine (PEI). After washing twice with ice-cold 50 mM Tris-HCl pH 7.4 buffer, drying and addition of 35 μl scintillator (BetaplateScint, PerkinElmer) per well followed. The radioactivity was determined by liquid scintillation spectrometry in a MicroBeta (PerkinElmer) plate counter.
Data analysis: For binding of [^3H]-(R)-NPTS to cell membranes, the calculation of Kd and Bmax values from the saturation binding assays and the IC50 values from the displacement binding was performed by iterative non-linear regression analysis adapted from the ‘Ligand’ program (Munson and Rodbard, 1980). Radioligand displacement curves in absence or in presence of increasing concentrations of tested compounds were fitted using a one-site fit and the apparent Ki values were calculated from the IC50 values using the Cheng-Prusoff equation (Cheng and Prusoff 1973).

human GlyT1c transporter, sequence (P48067 whole entry): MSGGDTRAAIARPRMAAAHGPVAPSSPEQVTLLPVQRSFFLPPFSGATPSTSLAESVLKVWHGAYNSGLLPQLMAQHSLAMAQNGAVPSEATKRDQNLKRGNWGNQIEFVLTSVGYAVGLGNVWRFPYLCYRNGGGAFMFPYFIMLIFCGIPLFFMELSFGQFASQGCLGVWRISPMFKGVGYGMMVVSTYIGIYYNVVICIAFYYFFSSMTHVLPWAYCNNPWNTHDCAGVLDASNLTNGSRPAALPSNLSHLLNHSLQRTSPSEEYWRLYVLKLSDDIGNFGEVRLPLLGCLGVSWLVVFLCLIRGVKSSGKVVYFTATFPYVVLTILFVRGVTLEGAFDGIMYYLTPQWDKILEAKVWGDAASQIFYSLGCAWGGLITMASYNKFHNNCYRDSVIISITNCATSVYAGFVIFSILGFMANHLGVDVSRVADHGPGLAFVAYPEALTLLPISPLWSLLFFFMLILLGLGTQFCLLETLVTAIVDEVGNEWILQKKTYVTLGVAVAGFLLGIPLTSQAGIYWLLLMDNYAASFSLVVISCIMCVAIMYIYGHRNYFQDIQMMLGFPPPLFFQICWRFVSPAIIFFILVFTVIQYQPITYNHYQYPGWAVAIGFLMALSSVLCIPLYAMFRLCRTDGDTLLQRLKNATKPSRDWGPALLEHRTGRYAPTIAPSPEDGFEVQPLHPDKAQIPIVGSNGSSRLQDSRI

Ki	SMILES	Ki (hydrochloride)
≤ 1000 nM	O=S(=O)(NCCOc1ccc2c(c1)C(C1(c3ccc(Cl)cc3)CCC1)NCC2)C1CNC1 (centres unmarked) [Example 166, N-[2-({1-[1-(4-Chlorophenyl)cyclobutyl]-1,2,3,4-tetrahydroisoquinolin-7-yl}oxy)ethyl]azetidine-3-sulfonamide (2E)-but-2-enedioate]	–
≤ 100 nM	CCCS(=O)(=O)NCCOc1ccc2c(c1)C(C1(c3ccccn3)CCC1)NCC2 (centres unmarked) [Example 98, N-[2-({1-[1-(Pyridin-2-yl)cyclobutyl]-1,2,3,4-tetrahydroisoquinolin-7-yl}oxy)ethyl]propane-1-sulfonamide dihydrochloride]	–
≤ 1000 nM	Cn1cc(S(=O)(=O)NCC(=O)Nc2ccc3c(c2)C(C2(c4ccc(Cl)cc4)CCC2)NCC3)cn1 (centres unmarked) [Example 113, N-{1-[1-(4-Chlorophenyl)cyclobutyl]-1,2,3,4-tetrahydroisoquinolin-7-yl}-N˜2˜-[(1-methyl-1H-pyrazol-4-yl)sulfonyl]glycinamide hydrochloride]	–
≤ 10000 nM	O=S(=O)(NCCOc1ccc2c(c1)C(C1(c3ccc(Cl)cc3)CCC1)NCC2)c1ncn[nH]1 (centres unmarked) [Example 199, N-[2-({1-[1-(4-Chlorophenyl)cyclobutyl]-1,2,3,4-tetrahydroisoquinolin-7-yl}oxy)ethyl]-1H-1,2,4-triazole-5-sulfonamide]	–
≤ 100 nM	O=S(=O)(CCCF)NCCOc1ccc2c(c1)C(C1(c3ccc(Cl)cc3)CCC1)NCC2 (centres unmarked) [Example 140, N-[2-({1-[1-(4-Chlorophenyl)cyclobutyl]-1,2,3,4-tetrahydroisoquinolin-7-yl}oxy)ethyl]-3-fluoropropane-1-sulfonamide hydrochloride]	–
≤ 10000 nM	NC(=O)Nc1ccc(S(=O)(=O)NCCOc2ccc3c(c2)C(C2(c4ccc(Cl)cc4)CCC2)NCC3)cc1 (centres unmarked) [Example 191, 4-(Carbamoylamino)-N-[2-({1-[1-(4-chlorophenyl)cyclobutyl]-1,2,3,4-tetrahydroisoquinolin-7-yl}oxy)ethyl]benzenesulfonamide hydrochloride]	–
≤ 10000 nM	CCCS(=O)(=O)N(CCN)CCOc1ccc2c(c1)C(C1(c3ccc(Cl)cc3)CCC1)NCC2 (centres unmarked) [Example 174, N-(2-Aminoethyl)-N-[2-({1-[1-(4-chlorophenyl)cyclobutyl]-1,2,3,4-tetrahydroisoquinolin-7-yl}oxy)ethyl]propane-1-sulfonamide dihydrochloride]	–
≤ 100 nM	CN(C)CCS(=O)(=O)NCCOc1ccc2c(c1)C(C1(c3ccc(Cl)cc3)CCC1)NCC2 (centres unmarked) [Example 149, N-[2-({1-[1-(4-Chlorophenyl)cyclobutyl]-1,2,3,4-tetrahydroisoquinolin-7-yl}oxy)ethyl]-2-(dimethylamino)ethanesulfonamide (2E)-but-2-enedioate]	–
≤ 100 nM	Cn1cnc(S(=O)(=O)NCc2ccc3c(c2)C(C2(c4ccc(Cl)cc4)CCC2)NCC3)c1 (centres unmarked) [Example 93, N-({1-[1-(4-Chlorophenyl)cyclobutyl]-1,2,3,4-tetrahydroisoquinolin-7-yl}methyl)-1-methyl-1 H-imidazole-4-sulfonamide hydrochloride]	–
≤ 10000 nM	O=S(=O)(NCCOc1ccc2c(c1)C(C1(c3ccc(Cl)cc3)CCC1)NCC2)C1CCNC1 (single isomer, unassigned) [Example 172, N-[2-({1-[1-(4-Chlorophenyl)cyclobutyl]-1,2,3,4-tetrahydroisoquinolin-7-yl}oxy)ethyl]pyrrolidine-3-sulfonamide dihydrochloride]	–
≤ 10000 nM	O=S(=O)(NCCOc1ccc2c(c1)C(C1(c3ccc(Cl)cc3)CCC1)NCC2)C1CCNCC1 (centres unmarked) [Example 190, N-[2-({1-[1-(4-Chlorophenyl)cyclobutyl]-1,2,3,4-tetrahydroisoquinolin-7-yl}oxy)ethyl]piperidine-4-sulfonamide dihydrochloride]	–
≤ 100 nM	Cn1cnc(S(=O)(=O)NCc2ccc3c(c2)C(C(C)(C)c2ccc(Cl)cc2)NCC3)c1 (centres unmarked) [Example 102, N-({1-[2-(4-Chlorophenyl)propan-2-yl]-1,2,3,4-tetrahydroisoquinolin-7-yl}methyl)-1-methyl-1H-imidazole-4-sulfonamide hydrochloride]	–
≤ 100 nM	CCCS(=O)(=O)NCC(=O)Nc1ccc2c(c1)C(C1(c3ccc(Cl)cc3)CCC1)NCC2 (centres unmarked) [Example 99, N-{1-[1-(4-Chlorophenyl)cyclobutyl]-1,2,3,4-tetrahydroisoquinolin-7-yl}-N˜2˜-(propylsulfonyl)glycinamide hydrochloride]	–
≤ 100 nM	O=S(=O)(NCCOc1ccc2c(c1)C(C1(c3ccc(Cl)cc3)CCC1)NCC2)C1CCNC1 (single isomer, unassigned) [Example 148, N-[2-({1-[1(4-Chlorophenyl)cyclobutyl]-1,2,3,4-tetrahydroisoquinolin-7-yl}oxy)ethyl]pyrrolidine-3-sulfonamide dihydrochloride]	–
≤ 10000 nM	O=S(=O)(NCCOc1ccc2c(c1)C(C1(c3ccc(Cl)cc3)CCC1)NCC2)C1CCCNC1 (single isomer, unassigned) [Example 192, N-[2-({1-[1-(4-Chlorophenyl)cyclobutyl]-1,2,3,4-tetrahydroisoquinolin-7-yl}oxy)ethyl]piperidine-3-sulfonamide dihydrochloride]	–
≤ 100 nM	O=S(=O)(NCCOc1ccc2c(c1)C(C1(c3ccc(Cl)cc3)CCC1)NCC2)C1CCCNC1 (single isomer, unassigned) [Example 160, N-[2-({1-[1-(4-Chlorophenyl)cyclobutyl]-1,2,3,4-tetrahydroisoquinolin-7-yl}oxy)ethyl]piperidine-3-sulfonamide dihydrochloride]	–
≤ 100 nM	Nc1ccc(S(=O)(=O)NCCOc2ccc3c(c2)C(C2(c4ccc(Cl)cc4)CCC2)NCC3)cc1 (centres unmarked) [Example 147, 4-Amino-N-[2-({1-[1-(4-chlorophenyl)cyclobutyl]-1,2,3,4-tetrahydroisoquinolin-7-yl}oxy)ethyl]benzenesulfonamide dihydrochloride]	–
≤ 10000 nM	CCCS(=O)(=O)Oc1ccc2c(c1)C(C1(c3cccc(F)c3)CCC1)NCC2 (centres unmarked) [Example 120, 1-[1-(3-Fluorophenyl)cyclobutyl]-1,2,3,4-tetrahydroisoquinolin-7-yl propane-1-sulfonate hydrochloride]	–
≤ 10000 nM	CC(=O)Nc1ncc(S(=O)(=O)NCCOc2ccc3c(c2)C(C2(c4ccc(Cl)cc4)CCC2)NCC3)s1 (centres unmarked) [Example 188, N-(5-{[2-({1-[1-(4-Chlorophenyl)cyclobutyl]-1,2,3,4-tetrahydroisoquinolin-7-yl}oxy)ethyl]sulfamoyl}-1,3-thiazol-2-yl)acetamide hydrochloride]	–
≤ 100 nM	CCCS(=O)(=O)NCc1ccc2c(c1)C(C(C)(C)c1ccc(Cl)cc1)NCC2 (centres unmarked) [Example 96, N-({1-[2-(4-Chlorophenyl)propan-2-yl]-1,2,3,4-tetrahydroisoquinolin-7-yl}methyl)propane-1-sulfonamide hydrochloride]	–
≤ 10000 nM	CCCS(=O)(=O)Nc1ccc(Oc2ccc3c(c2)C(C2(c4ccc(Cl)cc4)CCC2)NCC3)nc1 (centres unmarked) [Example 119, N-[6-({1-[1-(4-Chlorophenyl)cyclobutyl]-1,2,3,4-tetrahydroisoquinolin-7-yl}oxy)pyridin-3-yl]propane-1-sulfonamide dihydrochloride]	–
≤ 100 nM	CCCS(=O)(=O)NCCOc1ccc2c(c1)C(C(C)(C)c1ccc(Cl)cc1)NCC2 (centres unmarked) [Example 139, N-[2-({1-[2-(4-Chlorophenyl)propan-2-yl]-1,2,3,4-tetrahydroisoquinolin-7-yl}oxy)ethyl]propane-1-sulfonamide]	–
≤ 10000 nM	N#Cc1ccc2c(c1)C(C1(c3ccccn3)CCC1)NCC2 (centres unmarked) [Example 129, 1-[1-(Pyridin-2-yl)cyclobutyl]-1,2,3,4-tetrahydroisoquinoline-7-carbonitrile hydrochloride]	–
≤ 10000 nM	CCCS(=O)(=O)NCCOc1ccc2c(c1)C(C1(c3ccc(Cl)cc3)CCC1)N(C(C)=O)CC2 (centres unmarked) [Example 171, N-[2-({2-Acetyl-1-[1-(4-chlorophenyl)cyclobutyl]-1,2,3,4-tetrahydroisoquinolin-7-yl}oxy)ethyl]propane-1-sulfonamide]	–
–	O=S(=O)(NCCOc1ccc2c(c1)[C@H](C1(c3ccc(Cl)cc3)CCC1)NCC2)c1cccnc1 [Example 141, N-[2-({(1S)-1-[1-(4-Chlorophenyl)cyclobutyl]-1,2,3,4-tetrahydroisoquinolin-7-yl}oxy)ethyl]pyridine-3-sulfonamide hydrochloride]	≤ 100 nM

SMILES	Ki	Ki (hydrochloride)
N#Cc1ccc2c(c1)C(C1(c3ccc(Cl)cc3)CCC1)NCC2 (centres unmarked) [Example 92, 1-[1-(4-Chlorophenyl)cyclobutyl]-1,2,3,4-tetrahydroisoquinoline-7-carbonitrile hydrochloride]	≤ 100 nM	–
